Test results: patent US20230085307A1, “PYRIDAZINONE COMPOUND AND HERBICIDE” (NISSAN CHEMICAL CORPORATION, priority 2019, published 2023)

Columns and labels:
windgrass = assay: Test Example 5: herbicidal effect by foliage application, plastic box (Table 20, symbol L); format: in vivo, windgrass (Apera spica-venti); settings: foliage application, 320 g/ha, 3 weeks after application
How it was run: (§1)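 Sow seeds spot-wise in sterilized diluvial soil; cover with ~1.5 cm soil. Grow 14 days in greenhouse, 25° C. to 30° C. Spray foliage with emulsion diluted to predetermined amount. Rate effect after 3 weeks.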

blackgrass = assay: Test Example 5: herbicidal effect by foliage application, plastic box (Table 20, symbol J); format: in vivo, blackgrass (Alopecurus myosuroides); settings: foliage application, 320 g/ha, 3 weeks after application
How it was run: as §1

persian speedwell = assay: Test Example 5: herbicidal effect by foliage application, plastic box (Table 20, symbol R); format: in vivo, Persian speedwell (Veronica persica); settings: foliage application, 320 g/ha, 3 weeks after application
How it was run: as §1

green foxtail [1] = assay: Test Example 4: herbicidal effect by soil treatment (Table 19, symbol G); format: in vivo, green foxtail (Setaria viridis); settings: AAH 320 g/ha
How it was run: (§2)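 Soil-surface application: an emulsion agent diluted with water to the predetermined dose is sprayed uniformly over seeds lying under roughly 1.5 cm of sterilized diluvial soil. Boxes stay in a greenhouse at 25° C. to 30° C. Three weeks later, each species is graded on previously defined criteria.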

southern crabgrass = assay: Test Example 4: herbicidal effect by soil treatment (Table 19, symbol F); format: in vivo, southern crabgrass (Digitaria ciliaris); settings: AAH 320 g/ha
How it was run: as §2

velvetleaf [2] = assay: Test Example 4: herbicidal effect by soil treatment (Table 19, symbol M); format: in vivo, velvetleaf (Abutilon theophrasti); settings: AAH 320 g/ha
How it was run: as §2

barnyard grass [3] = assay: Test Example 4: herbicidal effect by soil treatment (Table 19, symbol H); format: in vivo, barnyard grass (Echinochloa crus-galli); settings: AAH 320 g/ha
How it was run: as §2

Japanese bulrush = assay: Test Example 2: herbicidal activity, application during weed generation under submerged conditions (Table 17, symbol B); format: in vivo, Japanese bulrush (Schoenoplectus juncoides); settings: AAH 320 g/ha; application during weed generation, submerged conditions
How it was run: (§3)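 Mixed weed seedlings in alluvial soil under a 4 cm water layer, greenhouse-grown at 25–30° C. Compound given as a diluted emulsion into the floodwater at the 1–2 leaf stage; response graded after three weeks.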

redroot pigweed = assay: Test Example 4: herbicidal effect by soil treatment (Table 19, symbol N); format: in vivo, redroot pigweed (Amaranthus retroflexus); settings: AAH 320 g/ha
How it was run: as §2

late watergrass = assay: Test Example 2: herbicidal activity, application during weed generation under submerged conditions (Table 17, symbol A); format: in vivo, late watergrass (Echinochloa oryzicola); settings: AAH 320 g/ha; application during weed generation, submerged conditions
How it was run: as §3

Italian ryegrass [4] = assay: Test Example 5: herbicidal effect by foliage application, plastic box (Table 20, symbol K); format: in vivo, Italian ryegrass (Lolium multiflorum); settings: foliage application, 320 g/ha, 3 weeks after application
How it was run: as §1

green foxtail [5] = assay: Test Example 5: herbicidal effect by foliage application, plastic box (Table 20, symbol G); format: in vivo, green foxtail (Setaria viridis); settings: foliage application, 320 g/ha, 3 weeks after application
How it was run: as §1

velvetleaf [6] = assay: Test Example 5: herbicidal effect by foliage application, plastic box (Table 20, symbol M); format: in vivo, velvetleaf (Abutilon theophrasti); settings: foliage application, 320 g/ha, 3 weeks after application
How it was run: as §1

chickweed = assay: Test Example 4: herbicidal effect by soil treatment (Table 19, symbol P); format: in vivo, common chickweed (Stellaria media); settings: AAH 320 g/ha
How it was run: as §2

Italian ryegrass [7] = assay: Test Example 4: herbicidal effect by soil treatment (Table 19, symbol K); format: in vivo, Italian ryegrass (Lolium multiflorum); settings: AAH 320 g/ha
How it was run: as §2

barnyard grass [8] = assay: Test Example 3: herbicidal effect by foliage application, Wagner pot (Table 18, symbol H); format: in vivo, barnyard grass (Echinochloa crus-galli); settings: 320 g/ha
How it was run: (§4)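 Plants were sown in alluvial soil held under 0.1–0.5 cm standing water and grown 14 days in a greenhouse at 25–30 °C. An emulsifiable formulation, water-diluted to the set dose, was then sprayed onto the foliage, and effects were scored three weeks later using previously defined criteria.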

rice flat sedge = assay: Test Example 3: herbicidal effect by foliage application, Wagner pot (Table 18, symbol E); format: in vivo, rice flat sedge (Cyperus iria); settings: 320 g/ha
How it was run: as §4

wild oat [9] = assay: Test Example 5: herbicidal effect by foliage application, plastic box (Table 20, symbol I); format: in vivo, wild oat (Avena fatua); settings: foliage application, 320 g/ha, 3 weeks after application
How it was run: as §1

lambsquarters = assay: Test Example 4: herbicidal effect by soil treatment (Table 19, symbol O); format: in vivo, lambsquarters (Chenopodium album); settings: AAH 320 g/ha
How it was run: as §2

wild oat [10] = assay: Test Example 4: herbicidal effect by soil treatment (Table 19, symbol I); format: in vivo, wild oat (Avena fatua); settings: AAH 320 g/ha
How it was run: as §2

| Structure (SMILES) | effect on windgrass (L) (windgrass) | effect on blackgrass (J) (blackgrass) | effect on persian speedwell (R) (persian speedwell) | G: green foxtail, herbicidal effect rating (green foxtail [1]) | F: southern crabgrass, herbicidal effect rating (southern crabgrass) | M: velvetleaf, herbicidal effect rating (velvetleaf [2]) | H: barnyard grass, herbicidal effect rating (barnyard grass [3]) | herbicidal effect rating, B: Japanese bulrush (Japanese bulrush) | N: redroot pigweed, herbicidal effect rating (redroot pigweed) | herbicidal effect rating, A: late watergrass (late watergrass) | effect on Italian ryegrass (K) (Italian ryegrass [4]) | effect on green foxtail (G) (green foxtail [5]) | effect on velvetleaf (M) (velvetleaf [6]) | P: chickweed, herbicidal effect rating (chickweed) | K: Italian ryegrass, herbicidal effect rating (Italian ryegrass [7]) | herbicidal effect on H (barnyard grass), rating 0-5 (barnyard grass [8]) | herbicidal effect on E (rice flat sedge), rating 0-5 (rice flat sedge) | effect on wild oat (I) (wild oat [9]) | O: lambsquarters, herbicidal effect rating (lambsquarters) | I: wild oat, herbicidal effect rating (wild oat [10]) |
| --- | --- | --- | --- | --- | --- | --- | --- | --- | --- | --- | --- | --- | --- | --- | --- | --- | --- | --- | --- | --- |
| Cc1nn(C)c(=O)c(-c2c(-c3ccc(OCC(F)F)cc3)sc3ccccc23)c1O [1-203] | 4 (Herbicidal rate of 70% or more and less than 90%) | 2 (Herbicidal rate of 20% or more and less than 40%) | 5 (Herbicidal rate of 90% or more (almost completely withered)) | 5 (Herbicidal rate of 90% or more (almost completely withered)) | 4 (Herbicidal rate of 70% or more and less than 90%) | 5 (Herbicidal rate of 90% or more (almost completely withered)) | 5 (Herbicidal rate of 90% or more (almost completely withered)) | 3 (Herbicidal rate of 40% or more and less than 70%) | 5 (Herbicidal rate of 90% or more (almost completely withered)) | 4 (Herbicidal rate of 70% or more and less than 90%) | 5 (Herbicidal rate of 90% or more (almost completely withered)) | 5 (Herbicidal rate of 90% or more (almost completely withered)) | 5 (Herbicidal rate of 90% or more (almost completely withered)) | 5 (Herbicidal rate of 90% or more (almost completely withered)) | 5 (Herbicidal rate of 90% or more (almost completely withered)) | 5 (Herbicidal rate of 90% or more (almost completely withered)) | 5 (Herbicidal rate of 90% or more (almost completely withered)) | 0 (Herbicidal rate of 5% or less (almost no effect)) | 5 (Herbicidal rate of 90% or more (almost completely withered)) | 1 (Herbicidal rate of 5% or more and less than 20%) |
| COCCOCOc1c(C)nn(C)c(=O)c1-c1c(-c2ccc(OCCSC)cc2)sc2ccccc12 [1-221] | 5 (Herbicidal rate of 90% or more (almost completely withered)) | 5 (Herbicidal rate of 90% or more (almost completely withered)) | 5 (Herbicidal rate of 90% or more (almost completely withered)) | 5 (Herbicidal rate of 90% or more (almost completely withered)) | 2 (Herbicidal rate of 20% or more and less than 40%) | 2 (Herbicidal rate of 20% or more and less than 40%) | 3 (Herbicidal rate of 40% or more and less than 70%) | 3 (Herbicidal rate of 40% or more and less than 70%) | 5 (Herbicidal rate of 90% or more (almost completely withered)) | 5 (Herbicidal rate of 90% or more (almost completely withered)) | 5 (Herbicidal rate of 90% or more (almost completely withered)) | 5 (Herbicidal rate of 90% or more (almost completely withered)) | 5 (Herbicidal rate of 90% or more (almost completely withered)) | 4 (Herbicidal rate of 70% or more and less than 90%) | 5 (Herbicidal rate of 90% or more (almost completely withered)) | 5 (Herbicidal rate of 90% or more (almost completely withered)) | 5 (Herbicidal rate of 90% or more (almost completely withered)) | 5 (Herbicidal rate of 90% or more (almost completely withered)) | 4 (Herbicidal rate of 70% or more and less than 90%) | 0 (Herbicidal rate of 5% or less (almost no effect)) |
| COCCOCOc1c(C)nn(C)c(=O)c1-c1c(-c2ccc(OCCC3OCCO3)cc2)sc2ccccc12 [1-224] | 0 (Herbicidal rate of 5% or less (almost no effect)) | 0 (Herbicidal rate of 5% or less (almost no effect)) | 5 (Herbicidal rate of 90% or more (almost completely withered)) | 3 (Herbicidal rate of 40% or more and less than 70%) | 2 (Herbicidal rate of 20% or more and less than 40%) | 5 (Herbicidal rate of 90% or more (almost completely withered)) | 1 (Herbicidal rate of 5% or more and less than 20%) | 3 (Herbicidal rate of 40% or more and less than 70%) | 4 (Herbicidal rate of 70% or more and less than 90%) | 3 (Herbicidal rate of 40% or more and less than 70%) | 0 (Herbicidal rate of 5% or less (almost no effect)) | 5 (Herbicidal rate of 90% or more (almost completely withered)) | 5 (Herbicidal rate of 90% or more (almost completely withered)) | 0 (Herbicidal rate of 5% or less (almost no effect)) | 0 (Herbicidal rate of 5% or less (almost no effect)) | 5 (Herbicidal rate of 90% or more (almost completely withered)) | 5 (Herbicidal rate of 90% or more (almost completely withered)) | 0 (Herbicidal rate of 5% or less (almost no effect)) | 3 (Herbicidal rate of 40% or more and less than 70%) | 0 (Herbicidal rate of 5% or less (almost no effect)) |
